Reference: PMC12782889, “A GmNRF5a–GmCERK1–GmCAK1 module mediates chitin/chitosan‐triggered immune response in soybean” (Journal of Integrative Plant Biology, 2025)

Assays:
[1] = system: GmNFR5a-GmCERK1 interaction; test: Co-immunoprecipitation of GmNFR5a-GFP with GmCERK1-HA in N. benthamiana; assay type: cell-based, soybean (Glycine max); conditions: Co-IP; N. benthamiana leaves treated 50 mg/L for 5 min
Procedure: (§1) Nicotiana benthamiana leaves were harvested 48 h post inoculation (hpi) after agroinfiltration. Samples were ground in liquid nitrogen and incubated for 30 min in a lysis buffer (50 mM Tris-HCl pH 8.0, 150 mM NaCl, 1.0% (v/v) NP-40, 0.1% SDS (w/v) and 0.1% protease inhibitor cocktail ([…]; Sigma, St. Louis, MI, USA)). Supernatant was collected by centrifugation at 21,000 g for 15 min and then incubated with GFP-trap beads (item No.: gta-20; Chromotek, Hauppauge, NY, USA) at 4°C for 2 h. The GFP-trap beads were pelleted by centrifugation at 500 g for 2 min and washed with lysis buffer at least four times. Proteins were eluted by boiling the beads in a protein loading buffer for 10 min and detected by immunoblot analysis with anti-GFP (Cat No. M20004; Abmart, Shanghai, China) or anti-HA (Cat No. M20013; Abmart, Shanghai, China).

GmCERK1^ECD = GmCERK1^ECD (Glycine max, UniProt K7N1N7); test: Microscale thermophoresis (MST) binding to GmCERK1^ECD; set-up: species or system soybean (Glycine max); conditions: ligand dp6, His-tagged protein purified from Pichia pastoris, read-out: dissociation constant (K D) with GmCERK1^ECD
Source text: (§2) The ectodomains of GmCERK1, GmNFR5a, and mutants were cloned into the yeast expression vector pPICZαA (Thermo Fisher Scientific, Shanghai, China) through the double digestion and ligation using the restriction endonuclease EcoRI/XbaI (NEB, Suzhou, China) and T4 ligase. Then, the linearized recombinant plasmid pPICZαA‐GmCERK1 and pPICZαA‐GmNFR5a were transformed into P. pastoris X‐33. The positive colonies were selected on YPDS medium (1% w/v yeast extract, 2% w/v peptone, 2% w/v glucose, 2% w/v agar, 100 μg/mL antibiotic Zeocin (Thermo Fisher Scientific)) plates and verified by direct DNA sequencing. Protein expression was carried out initially in BMGY media (100 mM potassium phosphate pH 6.0, 1.34% w/v YNB, 4 × 10^−5% w/v biotin, 1% v/v glycerol) at 28°C with shaking (180 rpm) until the OD600 reached 2.0–6.0. The cell pellet was transferred into BMMY medium (100 mM potassium phosphate pH 6.0, 1.34% w/v YNB, 4 × 10^−5% w/v biotin, 0.5% v/v methanol) and continuously supplied with the addition of 0.5% (v/v) methanol every day for 5 d. […]
(§3) GmCERK1^ECD, GmNFR5a^ECD, and all mutants were labeled with a fluorescent dye using the Monolith Protein Labeling Kit RED‐NHS second Generation (MO‐L011). […] The data were analyzed and fitted by plotting ligand concentrations against bound fractions using the MO.Affinity Analysis v3.0.5 software. […]

UGT76G1 = molecular target: T1, UGT76G1 (Stevia rebaudiana, UniProt Q6VAB4); test: MST binding to UGT76G1 (negative control protein)
T1 construct: made in house
T1 sequence (Q6VAB4 1-458): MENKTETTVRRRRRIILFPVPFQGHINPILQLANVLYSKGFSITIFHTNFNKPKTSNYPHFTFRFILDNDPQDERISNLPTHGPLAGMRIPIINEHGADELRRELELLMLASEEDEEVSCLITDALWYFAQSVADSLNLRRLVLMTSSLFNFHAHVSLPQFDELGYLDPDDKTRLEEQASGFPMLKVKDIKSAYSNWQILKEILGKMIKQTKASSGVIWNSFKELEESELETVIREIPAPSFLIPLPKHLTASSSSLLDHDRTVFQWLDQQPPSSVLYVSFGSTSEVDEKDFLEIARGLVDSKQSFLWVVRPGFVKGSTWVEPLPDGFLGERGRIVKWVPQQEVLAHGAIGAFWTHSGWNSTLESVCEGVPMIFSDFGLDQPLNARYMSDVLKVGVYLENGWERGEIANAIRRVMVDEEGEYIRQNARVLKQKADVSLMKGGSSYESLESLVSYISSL

AtCERK1^ECD = molecular target: T2, AtCERK1^ECD (Arabidopsis thaliana, UniProt A8R7E6); test: Microscale thermophoresis (MST) binding to AtCERK1^ECD (positive control); conditions: ligand dp6, protein purified from Pichia pastoris, read-out: dissociation constant (K D) with AtCERK1^ECD
T2 construct: ectodomain of AtCERK1 (aa25–224); made in house; host or cells: Pichia pastoris X-33
T2 sequence (A8R7E6 25-224): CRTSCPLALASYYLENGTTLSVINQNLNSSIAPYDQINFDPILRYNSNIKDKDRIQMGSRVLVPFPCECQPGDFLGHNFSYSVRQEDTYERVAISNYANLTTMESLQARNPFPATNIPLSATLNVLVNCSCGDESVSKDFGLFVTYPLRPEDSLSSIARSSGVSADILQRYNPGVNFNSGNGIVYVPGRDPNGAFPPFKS

[2] = system: GmCERK1-GmCAK1 interaction; test: Co-immunoprecipitation of GmCERK1-GFP with GmCAK1-HA in N. benthamiana; assay type: cell-based, soybean (Glycine max); conditions: Co-IP; N. benthamiana leaves treated 50 mg/L for 5 min
Procedure: as §1

GmNFR5a^ECD = GmNFR5a^ECD (Glycine max, UniProt A5YJV9); test: Microscale thermophoresis (MST) binding to GmNFR5a^ECD; set-up: species or system soybean (Glycine max); conditions: ligand dp6, His-tagged protein purified from Pichia pastoris, read-out: dissociation constant (K D) with GmNFR5a^ECD
Source text: as §2, §3

GmCERK1^ECD, sequence (K7N1N7 entry or part of it): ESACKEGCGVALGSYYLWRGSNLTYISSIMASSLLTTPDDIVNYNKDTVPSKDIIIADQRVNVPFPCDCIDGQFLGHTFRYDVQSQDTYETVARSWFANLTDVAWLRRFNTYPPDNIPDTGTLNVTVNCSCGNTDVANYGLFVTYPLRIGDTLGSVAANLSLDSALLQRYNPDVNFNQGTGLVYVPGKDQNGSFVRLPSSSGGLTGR
GmNFR5a^ECD, sequence (A5YJV9 entry or part of it): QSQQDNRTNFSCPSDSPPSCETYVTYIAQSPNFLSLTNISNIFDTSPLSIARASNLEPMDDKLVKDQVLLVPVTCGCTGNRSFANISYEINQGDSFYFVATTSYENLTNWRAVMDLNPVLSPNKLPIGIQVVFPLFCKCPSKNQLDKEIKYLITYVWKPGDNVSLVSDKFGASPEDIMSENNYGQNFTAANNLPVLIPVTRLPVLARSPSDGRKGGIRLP

N[C@H]1[C@H](O[C@H]2[C@H](O)[C@@H](N)[C@H](O[C@H]3[C@H](O)[C@@H](N)[C@H](O[C@H]4[C@H](O)[C@@H](N)[C@H](O[C@H]5[C@H](O)[C@@H](N)[C@H](O[C@H]6[C@H](O)[C@@H](N)C(O)O[C@@H]6CO)O[C@@H]5CO)O[C@@H]4CO)O[C@@H]3CO)O[C@@H]2CO)O[C@H](CO)[C@@H](O)[C@@H]1O (stereo partly drawn) [CSOS (dp6), chitosan oligosaccharide]
GmNFR5a interaction with GmCERK1 [1]: interacted strongly
Kd (GmCERK1^ECD): 10.6 ± 1.46 mM
binding to UGT76G1 (UGT76G1): cannot bind
Kd (AtCERK1^ECD): 2.73 ± 0.43 mM
interaction between GmCERK1 and GmCAK1 [2]: diminished
Kd (GmNFR5a^ECD): 7.04 ± 2.62 mM

CC(=O)N[C@H]1[C@H](O[C@H]2[C@H](O)[C@@H](NC(C)=O)[C@H](O[C@H]3[C@H](O)[C@@H](NC(C)=O)C(O)O[C@@H]3CO)O[C@@H]2CO)O[C@H](CO)[C@@H](O[C@@H]2O[C@H](CO)[C@@H](O[C@@H]3O[C@H](CO)[C@@H](O[C@@H]4O[C@H](CO)[C@@H](O)[C@H](O)[C@H]4NC(C)=O)[C@H](O)[C@H]3NC(C)=O)[C@H](O)[C@H]2NC(C)=O)[C@@H]1O (stereo partly drawn) [CTOS (dp6), chitin oligosaccharide]
GmNFR5a interaction with GmCERK1 [1]: interacted strongly
Kd (GmCERK1^ECD): 3.25 ± 0.95 mM
binding to UGT76G1 (UGT76G1): cannot bind
Kd (AtCERK1^ECD): 0.66 ± 0.27 mM
interaction between GmCERK1 and GmCAK1 [2]: diminished
Kd (GmNFR5a^ECD): 20.5 ± 6.07 mM
